Data reported in patent US20100226987A1, “TARGETING CONJUGATES COMPRISING ACTIVE AGENTS ENCAPSULATED IN CYCLODEXTRIN-CONTAINING POLYMERS” (CAPSUTECH LTD., priority 2007, published 2010).

Tested on: human nasopharyngeal KB cancer cells, which overexpress the folate receptor (FR)
Assay: In vitro binding of RhB-encapsulating conjugates to KB cells (fluorescence counting and fluorescence microscopy)
Type: cell-based
Details: control = mixture of non-encapsulated RhB, free CD derivative, PEG and FA, FIGS. 1A-1B
Method: Cell culture. KB cells (ATCC CCL-17) were obtained from ATCC and grown on Minimum essential medium (Eagle) with 2 mM L-glutamine; 0.1 mM non-essential amino acids; 0.2 Earle's BSS adjusted to contain 1.5 g/l sodium bicarbonate; and 1.0 mM sodium pyruvate, 90%; heat inactivated fetal bovine serum, 10%. Cells were subcultured according to the ATCC recommended protocol. After 3 cycles of splitting at 85% confluence, 2,000 to 50,000 cells were seeded on transparent 96 well plate. Following 24 hours it was decided that optimal conditions would be seeding 35,000 cells per well for assay to be carried out in the following day. […]
KB cancer cells were cultured as described in Materials and Methods, and seeded on both Black and transparent 96 well plates for fluorescence counting and fluorescent microscopy. […] The medium was then washed 3 times with PBS 1 X, and fluorescence associated with the cells in both plates was counted using Analyst HT (Ex 525 nm, Dc 560 nm, Em 595 nm). The net fluorescence was calculated by subtracting the averaged background fluorescence form the fluorescence of the conjugate-treated cells. The transparent plate was further analyzed by fluorescence microscopy.

With Di-CD-Glu-PEG3350-FA-RhB [Conjugate 55] the “fluorescence of treated cells higher relative to control” value was 780%.
